Experimental data as given in patent US8283373B2, “Inhibitors of cytosolic phospholipase A2” (Pfizer Inc., priority 2005, dated 2012).
One block for each compound: values may come before it.

How the values were obtained:
[1] = tested on: Human platelet aggregation; experiment: Platelet Function Analyzer (PFA-100) study; assay type: cell-based; settings: whole human blood, Collagen/Epinephrine cartridges, 1.25 μg/ml
Method: Human platelet aggregation was studied using the platelet function analyzer (PFA-100®). Human blood was collected from volunteers who had denied taking any platelet inhibitory medications over the previous two weeks. Blood was collected in 3.2% sodium citrate Vacutainer tubes (Becton Dickinson). Tubes were inverted 5 times and the blood was transferred to 15 ml polypropylene conical tubes. […] Tubes were inverted 10 times to mix, and allowed to sit at room temperature for 10 minutes prior to run in PFA-100. The manufacturers protocol was followed for the PFA-100 using Collagen/Epinephrine cartridges (0.5% DMSO alone in whole blood gave closure times of 125+/−13.9 seconds). Maximum closure time is 300 seconds, as set by the manufacturer.
All compounds were efficacious in the platelet function assay.

[2] = tested on: atherosclerosis in ApoE KO mice; experiment: ApoE KO mouse model of atherosclerosis (20 weeks); assay type: in vivo; settings: for decrease of atherosclerotic plaque burden at the aortic sinus vs control / atherosclerotic plaque burden at the aortic sinus: 20 weeks; for atherosclerotic plaque burden at the aortic sinus: control 519220±100694; for Atherosclerotic Lesions Along the Aorta (percent lesion area), % Decrease vs Control: ns = not significant
Method: The apolipoprotein E (ApoE) knockout mouse was created by gene targeting in embryonic stem cells to disrupt the ApoE gene. ApoE is a glycoprotein that is responsible for the uptake of chylomicrons and VLDL particles by the liver, thereby preventing the accumulation of cholesterol rich remnants in the blood stream.
Six week old male ApoE KO mice were treated with 4-{3-[1-benzhydryl-5-chloro-2-(2-{[(3,4-dichlorobenzyl)sulfonyl]amino}ethyl)-1H-indol-3-yl]propyl}benzoic acid (Compound C).

serum thromboxane B2 = experiment: Thromboxane B2 levels in the ApoE KO mouse model; assay type: in vivo; settings: ApoE KO mice, 3.3 mg/g chow for two days; vehicle 76.1±17.3
Method: Blood was collected through the retro-orbital siunus and left to coagulate at 37° C. for one hour. Serum was then isolated and assayed for thromboxane B2 by ELISA.
In a separate experiment, ApoE KO mice were dosed with vehicle or the compound of Example 25 at 10 mg/kg by oral gavage. Blood was collected through the retro-orbital siunus and left to coagulate at 37° C. for one hour. Serum was then isolated and assayed for thromboxane B2 by ELISA.

[3] = tested on: primary dopaminergic neurons; experiment: MPP+ exposure in dopaminergic neurons; assay type: cell-based, rat; settings: 10 μM MPP+ 60 minutes, control 100, MPP+ alone 56.6
Method: Primary dopaminergic neurons were isolated from E15 rat embryos as described in Pong K., et al., (1997) J. Neurochem. 69 986-994. Briefly, the ventral mesencephalon was isolated and tissue was pooled in ice-cold phosphate buffer saline (PBS) without Ca^2+ and Mg^2+. The tissue was transferred to an enzymatic dissociation media containing 20 IU/ml papain in Earle's balanced salt solution (Worthington Biochemical, Freehold, N.J.) and incubated for 30 minutes at 37° C. After enzymatic dissociation, the papain solution was aspirated and the tissue mechanically triturated with a fire-polished Pasteur pipette in complete media [Neurobasal Medium with B-27 supplement (Gibco, Grand Island, N.Y.), penicillin/streptomycin, aphidicolin, glutamate] containing 2,000 IU/ml DNase and 10 mg/ml ovomucoid protease inhibitor. Single-cell suspensions in complete media were plated on pre-coated poly-L-ornithine/laminin 24-well plates (Becton-Dickinson, Bedford, Mass.) at a density of 5.0×10^5 cells/well. Cells were maintained for one week prior to experimentation.
Cultures were exposed to 10 μM MPP^+ for 60 minutes. After the exposure, fresh media was exchanged and fresh compound was added. Dopaminergic neuron viability was determined 24 hours later by measuring ^3H-dopamine uptake as described in Pong et al., 1997, supra.

[4] = Drug exposure in ApoE KO mice fed supplemented chow; assay type: in vivo, mouse; settings: chow supplemented at 3.3 mg/g
[5] = tested on: Ascaris suum antigen-induced bronchoconstriction and AHR; settings: literature (Abraham et al. 1992; Jones et al. 1995); cited from earlier work

maximum drug exposure [4]: ~500 ng/mL
SMILES: O=C(O)c1ccc(CCCc2c(CCNS(=O)(=O)Cc3ccc(Cl)c(Cl)c3)n(C(c3ccccc3)c3ccccc3)c3ccc(Cl)cc23)cc1 [Compound C, 4-{3-[1-benzhydryl-5-chloro-2-(2-{[(3,4-dichlorobenzyl)sulfonyl]amino}ethyl)-1H-indol-3-yl]propyl}benzoic acid]
PFA-100 closure time [1]: increased closure time | Serum thromboxane B2 levels compared to control animals ([2]; 1.3 mg/g and 3.3 mg/g chow, after 9 and 20 weeks of treatment): significantly decreased | percent of total animals with Stage 3 (advanced fibrous plaque) ([2]; 1.3 mg/g chow): 33% | percent of total animals with Stage 4 (stable complicated lesion) ([2]; 1.3 mg/g chow): 56% | percent of total animals with Stage 5 (unstable complicated lesion) ([2]; 1.3 mg/g chow): 11% | decrease of atherosclerotic plaque burden at the aortic sinus vs control ([2]; 1.3 mg/g chow, p<0.05): 32.7% | atherosclerotic plaque burden at the aortic sinus ([2]; 1.3 mg/g chow): 349582±132685 μm^2 | Serum Thromboxane B2 Levels, % Decrease vs Control ([2]; 1.3 mg/g chow, after 9 weeks of treatment): 52.5% | Serum Thromboxane B2 Levels, % Decrease vs Control ([2]; 1.3 mg/g chow, after 20 weeks of treatment): 36.6% | Atherosclerotic Lesions Along the Aorta (percent lesion area), % Decrease vs Control ([2]; 1.3 mg/g chow): 32.4 ns % | percent of total animals with Stage 1 (fibrofatty lesion) ([2]; 3.3 mg/g chow): 9% | percent of total animals with Stage 2 (early fibrous plaque) ([2]; 3.3 mg/g chow): 18% | percent of total animals with Stage 3 (advanced fibrous plaque) ([2]; 3.3 mg/g chow): 37% | percent of total animals with Stage 4 (stable complicated lesion) ([2]; 3.3 mg/g chow): 27% | percent of total animals with Stage 5 (unstable complicated lesion) ([2]; 3.3 mg/g chow): 9% | decrease of atherosclerotic plaque burden at the aortic sinus vs control ([2]; 3.3 mg/g chow, p<0.001): 45.6% | atherosclerotic plaque burden at the aortic sinus ([2]; 3.3 mg/g chow): 282697±146462 μm^2 | Serum Thromboxane B2 Levels, % Decrease vs Control ([2]; 3.3 mg/g chow, after 9 weeks of treatment): 61.2% | Serum Thromboxane B2 Levels, % Decrease vs Control ([2]; 3.3 mg/g chow, after 20 weeks of treatment): 49.5% | Atherosclerotic Lesions Along the Aorta (percent lesion area), % Decrease vs Control ([2]; 3.3 mg/g chow): 35.2 ns % | atherosclerotic lesion complexity at the aortic sinus vs control ([2]; 1.3 and 3.3 mg/g chow): reduced | serum Thromboxane concentration (serum thromboxane B2): 33.5 ± 11.6 ng/mL | dopaminergic neuron viability (3H-dopamine uptake), Avg. ([3]; 0.3 μM): 68.6 | dopaminergic neuron viability (3H-dopamine uptake), Avg. ([3]; 1 μM): 70.6 | dopaminergic neuron viability (3H-dopamine uptake), Avg. ([3]; 3 μM): 75.9 | dopaminergic neuron viability (3H-dopamine uptake), Avg. ([3]; 10 μM): 79.6

SMILES: CC(c1cc2ccccc2s1)N(O)C(N)=O (stereo not shown) [zileuton]
effect on antigen-induced airway responses in the sheep model [5]: blocks antigen-induced late airway responses, inflammation, and AHR
